# Test results from patent US20080161289A1, “Fused Thiazole Derivatives Having Affinity for the Histamine H3 Receptor” (Glaxo Group Limited, priority 2005, published 2008).
# Biological target: T1, histamine H3 receptors (Homo sapiens, UniProt Q9Y5N1)
# T1 construct: expressed in transfected cells; host or cells: CHO K1 cells carrying pSwitch, transfected with pGeneH3, induced with mifepristone; clone 3H3; membrane preparation
# Experiment: Histamine H3 functional antagonist assay ([35S]-GTPγS SPA on membranes from H3 cells)
# Format: biochemical
# Conditions: hydrochloride salts tested; H3 functional antagonist assay using membrane prepared from cultured H3 cells; averages of a number of experiments; read-out: functional pKi (fpKi) (converted)
# Excerpt: A membrane preparation containing histamine H3 receptors may be prepared in accordance with the following procedures:
# (i) Generation of Histamine H3 Cell Line
# DNA encoding the human histamine H3 gene (Huvar, A. et al. (1999) Mol. Pharmacol. 55(6), 1101-1107) was cloned into a holding vector, pCDNA3.1 TOPO (InVitrogen) and its cDNA was isolated from this vector by restriction digestion of plasmid DNA with the enzymes BamHI and Not-1 and ligated into the inducible expression vector pGene (InVitrogen) digested with the same enzymes. The GeneSwitch™ system (a system where in transgene expression is switched off in the absence of an inducer and switched on in the presence of an inducer) was performed as described in U.S. Pat. Nos. 5,364,791; 5,874,534; and 5,935,934. Ligated DNA was transformed into competent DH5α E. coli host bacterial cells and plated onto Luria Broth (LB) agar containing Zeocin™ (an antibiotic which allows the selection of cells expressing the sh ble gene which is present on pGene and pSwitch) at 50 μg ml^−1. Colonies containing the re-ligated plasmid were identified by restriction analysis. DNA for transfection into mammalian cells was prepared from 250 ml cultures of the host bacterium containing the pGeneH3 plasmid and isolated using a DNA preparation kit (Qiagen Midi-Prep) as per manufacturers guidelines (Qiagen).
# CHO K1 cells previously transfected with the pSwitch regulatory plasmid (InVitrogen) were seeded at 2×10e6 cells per T75 flask in Complete Medium, containing Hams F12 (GIBCOBRL, Life Technologies) medium supplemented with 10% v/v dialysed foetal bovine serum, L-glutamine, and hygromycin (100 μg ml^−1), 24 hours prior to use. Plasmid DNA was transfected into the cells using Lipofectamine plus according to the manufacturers guidelines (InVitrogen). 48 hours post transfection cells were placed into complete medium supplemented with 500 μg ml^−1 Zeocin™.
# 10-14 days post selection 10 nM Mifepristone (InVitrogen), was added to the culture medium to induce the expression of the receptor. 18 hours post induction cells were detached from the flask using ethylenediamine tetra-acetic acid (EDTA; 1:5000; InVitrogen), following several washes with phosphate buffered saline pH 7.4 and resuspended in Sorting Medium containing Minimum Essential Medium (MEM), without phenol red, and supplemented with Earles salts and 3% Foetal Clone II (Hyclone). Approximately 1×10e7 cells were examined for receptor expression by staining with a rabbit polyclonal antibody, 4a, raised against the N-terminal domain of the histamine H3 receptor, incubated on ice for 60 minutes, followed by two washes in sorting medium. Receptor bound antibody was detected by incubation of the cells for 60 minutes on ice with a goat anti rabbit antibody, conjugated with Alexa 488 fluorescence marker (Molecular Probes). Following two further washes with Sorting Medium, cells were filtered through a 50 μm Filcon™ (BD Biosciences) and then analysed on a FACS Vantage SE Flow Cytometer fitted with an Automatic Cell Deposition Unit. Control cells were non-induced cells treated in a similar manner. Positively stained cells were sorted as single cells into 96-well plates, containing Complete Medium containing 500 μg ml^−1 Zeocin™ and allowed to expand before reanalysis for receptor expression via antibody and ligand binding studies. One clone, 3H3, was selected for membrane preparation.
# (ii) Membrane Preparation from Cultured Cells
# All steps of the protocol are carried out at 4° C. and with pre-cooled reagents. The cell pellet is resuspended in 10 volumes of homogenisation buffer (50 mM N-2-hydroxyethylpiperazine-N′-2-ethanesulfonic acid (HEPES), 1 mM ethylenediamine tetra-acetic acid (EDTA), pH 7.4 with KOH, supplemented with 10e-6M leupeptin (acetyl-leucyl-leucyl-arginal; Sigma L2884), 25 μg/ml bacitracin (Sigma B0125), 1 mM phenylmethylsulfonyl fluoride (PMSF) and 2×10e-6M pepstain A (Sigma)). […]
# T1 sequence (Q9Y5N1 whole entry): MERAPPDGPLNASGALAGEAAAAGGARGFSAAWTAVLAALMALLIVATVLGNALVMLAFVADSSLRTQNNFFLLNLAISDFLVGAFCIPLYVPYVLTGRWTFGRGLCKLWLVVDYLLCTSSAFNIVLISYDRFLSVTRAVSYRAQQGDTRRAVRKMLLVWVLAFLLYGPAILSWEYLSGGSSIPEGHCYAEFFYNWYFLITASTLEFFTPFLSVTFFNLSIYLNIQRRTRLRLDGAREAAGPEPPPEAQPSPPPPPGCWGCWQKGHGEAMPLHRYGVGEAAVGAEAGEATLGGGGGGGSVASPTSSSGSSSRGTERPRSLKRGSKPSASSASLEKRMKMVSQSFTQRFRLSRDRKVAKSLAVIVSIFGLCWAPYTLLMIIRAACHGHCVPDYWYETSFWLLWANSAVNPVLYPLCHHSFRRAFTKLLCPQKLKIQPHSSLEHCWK
row,Structure (SMILES),Ki
1,"Cc1cn(C)nc1C(=O)N1CCC(c2nc3c(s2)CCN(C2CCC2)CC3)CC1 [Example E85, 6-Cyclobutyl-2-{1-[(1,4-dimethyl-1H-pyrazol-3-yl)carbonyl]-4-piperidinyl}-5,6,7,8-tetrahydro-4H-[1,3]thiazolo[4,5-d]azepine]",< 1.26 nM
2,"Cc1cc(C(=O)N2CCC(c3nc4c(s3)CCN(C3CCC3)CC4)CC2)ccn1 [Example E93, 6-Cyclobutyl-2-{1-[(2-methyl-4-pyridinyl)carbonyl]-4-piperidinyl}-5,6,7,8-tetrahydro-4H-[1,3]thiazolo[4,5-d]azepine]",< 1.26 nM
3,"Cc1nccc(C(=O)N2CCC(c3nc4c(s3)CCN(C3CCC3)CC4)CC2)n1 [Example E95, 6-Cyclobutyl-2-{1-[(2-methyl-4-pyrimidinyl)carbonyl]-4-piperidinyl}-5,6,7,8-tetrahydro-4H-[1,3]thiazolo[4,5-d]azepine]",< 1.26 nM
4,"O=C1NCCN1c1ccc(-c2nc3c(s2)CCN(C2CCC2)CC3)cn1 [Example E103, 1-[5-(6-Cyclobutyl-5,6,7,8-tetrahydro-4H-[1,3]thiazolo[4,5-d]azepin-2-yl)-2-pyridinyl]-2-imidazolidinone]",< 1.26 nM
5,"N#Cc1ccc(C(=O)N2CCC(c3nc4c(s3)CCN(C3CCC3)CC4)C2)cc1 (stereo not drawn) [Example E105, 4-{[3-(6-Cyclobutyl-5,6,7,8-tetrahydro-4H-[1,3]thiazolo[4,5-d]azepin-2-yl)-1-pyrrolidinyl]carbonyl}benzonitrile]",< 1.26 nM
6,"c1cc(N2CCCC2)ncc1-c1nc2c(s1)CCN(C1CCC1)CC2 [Example E107, 6-Cyclobutyl-2-[6-(1-pyrrolidinyl)-3-pyridinyl]-5,6,7,8-tetrahydro-4H-[1,3]thiazolo[4,5-d]azepine]",> 7.94 nM

# Results, then the compound that gave them:
row,Ki,Structure (SMILES)
1,< 1.26 nM,"Cc1cc(C(=O)N2CCC(c3nc4c(s3)CCN(C3CCC3)CC4)CC2)nn1C [Example E88, 6-Cyclobutyl-2-{1-[(1,5-dimethyl-1H-pyrazol-3-yl)carbonyl]-4-piperidinyl}-5,6,7,8-tetrahydro-4H-[1,3]thiazolo[4,5-d]azepine]"
2,< 1.26 nM,"O=C(c1ccccn1)N1CCC(c2nc3c(s2)CCN(C2CCC2)CC3)CC1 [Example E90, 6-Cyclobutyl-2-[1-(2-pyridinylcarbonyl)-4-piperidinyl]-5,6,7,8-tetrahydro-4H-[1,3]thiazolo[4,5-d]azepine]"
3,< 1.26 nM,"Cc1cncc(C(=O)N2CCC(c3nc4c(s3)CCN(C3CCC3)CC4)CC2)n1 [Example E92, 6-Cyclobutyl-2-{1-[(6-methyl-2-pyrazinyl)carbonyl]-4-piperidinyl}-5,6,7,8-tetrahydro-4H-[1,3]thiazolo[4,5-d]azepine]"
4,< 1.26 nM,"O=S1(=O)CCCN1c1ccc(-c2nc3c(s2)CCN(C2CCC2)CC3)cc1 [Example E99, 6-Cyclobutyl-2-[4-(1,1-dioxido-2-isothiazolidinyl)phenyl]-5,6,7,8-tetrahydro-4H-[1,3]thiazolo[4,5-d]azepine]"
5,< 1.26 nM,"NC(=O)c1ccc(-c2nc3c(s2)CCN(C2CCC2)CC3)cn1 [Example E100, 5-(6-Cyclobutyl-5,6,7,8-tetrahydro-4H-[1,3]thiazolo[4,5-d]azepin-2-yl)-2-pyridinecarboxamide]"
6,< 31.6 nM,"Cc1cccc(C(=O)N2CCC(c3nc4c(s3)CCN(C3CCC3)CC4)C2)n1 (stereo not drawn) [Example E106, 6-Cyclobutyl-2-{1-[(6-methyl-2-pyridinyl)carbonyl]-3-pyrrolidinyl}-5,6,7,8-tetrahydro-4H-[1,3]thiazolo[4,5-d]azepine]"
7,< 1.26 nM,"c1cc(N2CCOCC2)ncc1-c1nc2c(s1)CCN(C1CCC1)CC2 [Example E108, 6-Cyclobutyl-2-[6-(4-morpholinyl)-3-pyridinyl]-5,6,7,8-tetrahydro-4H-[1,3]thiazolo[4,5-d]azepine]"
8,< 31.6 nM,"N#Cc1cccc(-c2nc3c(s2)CCN(C2CCC2)CC3)c1 [Example E112, 3-(6-Cyclobutyl-5,6,7,8-tetrahydro-4H-[1,3]thiazolo[4,5-d]azepin-2-yl)benzonitrile]"
9,< 1.26 nM,"CN(C)c1ccc(-c2nc3c(s2)CCN(C2CCC2)CC3)cc1 [Example E116, 4-(6-Cyclobutyl-5,6,7,8-tetrahydro-4H-[1,3]thiazolo[4,5-d]azepin-2-yl)-N,N-dimethylaniline]"
